Three molecules from patent publication US20160271072A1, “POLYMER NANOPARTICLES CONTAINING MULTIPLE AGENTS AND METHODS THEREOF” (THE UNIVERSITY OF NORTH CAROLINA AT CHAPEL HILL, priority 2013, published 2016) can be followed below.

Data set [1] can be described thus: Drug loading and encapsulation efficiency of cores and PLGA NPs. Type of data set: physicochemical. To be noted: DOPA coated cores encapsulated separately, DL up to approximately 5 wt %; n=5. The protocol: The loading and encapsulation efficiency of Rapamycin was measured using High-performance Liquid Chromatography (HPLC, Waters, λ=277 nm); the loading and encapsulation efficiency of CDDP was measured using Inductively Coupled Plasma-Mass Spectroscopy (ICP-MS, NexION™ 300, Perkin Elmer Inc); the loading efficiency of GMP was measured both by Ultraviolet-visible spectrometer (UV, DU®800, Beckman Coulter) and ^3H labeled CMP incorporation using a Liquid Scintillation Analyzer (TRI-CARB 2900 TR, Packard Bioscience Co). The size distribution of particle was determined using a Malvern ZetaSizer Nano series (Westborough, Mass.). TEM images of NPs were acquired using a JEOL 100CX II TEM (JEOL, Japan). The NPs were negatively stained with 2% uranyl acetate. Approximately 100 NPs were analyzed for calculating the average number of CDDP cores per PLGA NP.
DL and EE of cisplatin were measured using Inductively Coupled Plasma-Mass Spectroscopy (ICP-MS, NexION™ 300, Perkin Elmer Inc); LE and EE of GMP were both measured by Ultraviolet-Visible Spectroscopy (UV, DU®800, Beckman Coulter) and ^3H labeled cytidine 5′ monophosphate (CMP) [5-^3H] disodium salt (Moravek Bio Inc, 1 mCi/mL) incorporation using a Liquid Scintillation Analyzer (TRI-CARB 2900 TR, Packard Bioscience Co). The size distribution of particles was determined using a Malvern ZetaSizer Nano series (Westborough, Mass.). […]

Data set [2] concerns A375-luc cells. The experiment in a line: Cell viability (MTS) and Chou-Talalay drug combination analysis in A375-luc cells. In kind it is cell-based. To be noted: single agent, free or in NP, 2 days drug exposure. The protocol: Cells were seeded in 96-well plates for 24 h at a density of 2×10^3 cells/well. Cell masses that were viable after 2 days of drug exposure were determined by MTS assay. A CellTiter 96 AQueous One Solution Cell Proliferation Assay (Promega, Madison, Wis.) kit containing the tetrazolium compound MTS was used to assay cell viability according to the manufacturer's protocols.
Drug combination analysis was performed by using the method described by Chou and Talalay.
We evaluated the degree of synergy between RAPA and CDDP in terms of cytotoxicity toward A375-luc cells in culture. […] The cytotoxicity of combined CDDP and RAPA was enhanced by NP delivery over free drug combination.

Data set [3] is described as follows: Serum biochemical value analysis, hematology and organ H&E. In kind it is in vivo, mice. To be noted: for blood cell counts (RBC, PLT, WBC, HCT, HGB) vs untreated control: healthy nude mice, three dosages; for ALT / AST / BUN / Creatinine: serum after three injections, n = 5. The protocol: After three injections, blood was collected and centrifuged at 4000 rpm for 5 min to obtain the serum. Blood urea nitrogen (BUN), creatinine, serum aspartate aminotransferase (AST) and alanine aminotransferase (ALT) levels, were assayed as indicators of renal and hepatic function. Whole blood was collected from healthy nude mice after three repeated treatments. Red blood cells (RBC), white blood cells (WBC), platelets (PLT), hemoglobin (HGB) and hematocrits (HCT) were counted for the detection of myelosuppression. Organs (heart, liver, spleen, lung, and kidney) were fixed and sectioned for H&E staining as to evaluate the organ-specific toxicity.

For data set [4], the system named is stroma-rich UMUC3 bladder cancer xenograft. The experiment in a line: Anti-tumor efficacy in stroma-rich UMUC3 bladder cancer xenografts (TUNEL, PCNA, Pt-DNA adduct, western blot). Type of data set: in vivo, mice. To be noted: tumor lysates after three doses. In general terms: A western blot detects proteins with antibodies after separation by electrophoresis.
The test system of data set [5] is UMUC3 cells. The experiment in a line: MTT cell viability and combination index on UMUC3 cells. In kind it is cell-based, human. To be noted: 48 h treatment. The protocol:
MTT (3-[4,5-dimethylthiazol-2-yl]-2,5-diphenyltetrazolium bromide) assay was conducted to detect in vitro viability of free GMP, cisplatin and their combinations as well as PLGA GMP NP, PLGA cisplatin NP and PLGA Combo NP. In Brief, cells were seeded in 96-well plates with a density of 3,000 cells per well 24 h prior to drug treatment. On the second day, cells were treated with free drugs or the drug combination at a series of dilutions with various molar ratios. Forty-eight h post treatment, 20 μL of MTT (5 mg/mL) reagent was added for another 4 h at 37° C. The medium was then discarded and the formed formazan salt was dissolved in 150 μL of DMSO. The absorbance in each well was read at the wavelength of 570 nm using a multidetection microplate reader (Plate […]). Each concentration was tested in five wells and data presented as mean±SD. […] Combination Index (CI) Analysis of free drug combination based on the Chou and Talalay method (T. C. Chou, P. Talalay, Adv. Enzyme Regul. 1984, 22, 27) was conducted using CompuSyn software. Briefly, for each level of Fa, the CI values of cisplatin and GMP combinations were calculated according to the following equation: […] CI values of the drug combinations were drawn as a function of Fa. […] (Y. Han, Z. He, […]. Bronich, R. Jordan, […], Mol. Pharm. 2012, 9, 2302).

A word on the IC50: it is the concentration that gives 50% inhibition.

For the molecule `[NH2][Pt]([NH2])([Cl])[Cl]` [CDDP, cisplatin], the “EE into PLGA NP” value in data set [1] came to 74.0±10.1%. In data set [2], the IC50 stood at 10 µM. In addition, in data set [3], the “blood cell counts (RBC, PLT, WBC, HCT, HGB) vs untreated control” value is on record as “significantly reduced”; the ALT is reported as 59 ± 1 U/L; the AST is 216 ± 15 U/L; the BUN is 25 ± 1 mg/dL. This molecule also yielded a Creatinine in data set [3] of 0.2 mg/dL.
With `CO[C@H]1C[C@@H]2CC[C@@H](C)[C@@](O)(O2)C(=O)C(=O)N2CCCC[C@H]2C(=O)O[C@H]([C@H](C)C[C@@H]2CC[C@@H](O)[C@H](OC)C2)CC(=O)[C@H](C)/C=C(\C)[C@@H](O)[C@@H](OC)C(=O)[C@H](C)C[C@H](C)/C=C/C=C/C=C/1C` [RAPA, rapamycin], the IC50 in data set [2] (48 h) turned out to be 16 µM.
For Gemcitabine monophosphate [GMP], in data set [1], the “EE into PLGA NP” value is reported as 70.6±2.5%. Further, the “expression of ERCC1 and XPA (western blot)” value in data set [4] is on record as “down-regulation”. Further, in data set [5], the IC50 is 34.8 µM. Also, in data set [3], the “blood cell counts (RBC, PLT, WBC, HCT, HGB) vs untreated control” value is “significantly reduced”; the ALT is 47 ± 3 U/L; the AST came to 122 ± 20 U/L; the BUN is listed as 24 ± 2 mg/dL. This molecule also yielded a Creatinine in data set [3] of 0.2 mg/dL.
